From PubChem BioAssay (NCI)
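Following 48 hours of exposure in 96-well plates, responses at five concentrations were used to interpolate endpoints linearly. The concentration for full growth arrest is given as TGI.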

Assays:
Assay in all cases: DTP human tumour cell line panel, 48 h
[1] = system: 786-0 renal
[2] = system: OVCAR-8 ovarian
[3] = system: MDA-MB-231 breast
[4] = system: SK-MEL-28 melanoma
[5] = system: A549 NSCLC
[6] = system: MALME-3M melanoma
[7] = system: T-47D breast
[8] = system: KM12 colon
[9] = system: IGROV1 ovarian
[10] = system: MCF7 breast
[11] = system: SK-OV-3 ovarian
[12] = system: LOX IMVI melanoma
[13] = system: CAKI-1 renal
[14] = system: M14 melanoma
[15] = system: ACHN renal
[16] = system: HCT-15 colon
[17] = system: CCRF-CEM leukemia
[18] = system: BT-549 breast
[19] = system: NCI-H23 lung
[20] = system: SN12C renal
[21] = system: HCC-2998 colon
[22] = system: RXF 393 renal
[23] = system: HOP-62 NSCLC
[24] = system: SF-268 CNS
[25] = system: OVCAR-3 ovarian
[26] = system: UO-31 renal
[27] = system: U251 CNS
[28] = system: TK-10 renal
[29] = system: HCT-116 colon
[30] = system: COLO 205 colon
[31] = system: SR leukemia
[32] = system: HT29 colon
[33] = system: HS 578T breast
[34] = system: DU-145 prostate
[35] = system: NCI-H226 lung
[36] = system: SF-295 CNS
[37] = system: SK-MEL-2 melanoma
[38] = system: NCI-H460 lung
[39] = system: SW-620 colon
[40] = system: SNB-75 CNS
[41] = system: SNB-19 CNS
[42] = system: SF-539 CNS
[43] = system: MDA-MB-435
[44] = system: RPMI-8226 leukemia
[45] = system: A498 renal
[46] = system: HL-60(TB) leukemia
[47] = system: PC-3 prostate
[48] = system: OVCAR-4 ovarian
[49] = system: UACC-62 melanoma
[50] = system: OVCAR-5 ovarian
[51] = system: EKVX NSCLC
[52] = system: MOLT-4 leukemia
[53] = system: HOP-92 NSCLC
[54] = system: K-562 leukemia
[55] = system: NCI/ADR-RES ovarian
[56] = system: MDA-N
[57] = system: UACC-257 melanoma
[58] = system: NCI-H522 lung
[59] = system: SK-MEL-5 melanoma

Nc1ccn(C2OC(COP(=O)(O)O)C(O)C2O)c(=O)n1 (stereo unspecified)
TGI [1]: > 100 µM | TGI [2]: > 100 µM | TGI [3]: > 100 µM | TGI [4]: > 100 µM | TGI [5]: > 100 µM | TGI [6]: > 100 µM | TGI [7]: > 100 µM | TGI [8]: > 100 µM | TGI [9]: > 100 µM | TGI [10]: > 100 µM | TGI [11]: > 100 µM | TGI [12]: > 100 µM | TGI [13]: > 100 µM | TGI [14]: > 44.9 µM | TGI [15]: > 41.4 µM | TGI [16]: > 100 µM | TGI [17]: 0.0742 µM | TGI [18]: > 100 µM | TGI [19]: > 100 µM | TGI [20]: > 100 µM | TGI [21]: > 100 µM | TGI [22]: > 94.7 µM | TGI [23]: > 100 µM | TGI [24]: > 100 µM | TGI [25]: > 100 µM | TGI [26]: > 100 µM | TGI [27]: > 100 µM | TGI [28]: > 100 µM | TGI [29]: > 100 µM | TGI [30]: > 100 µM | TGI [31]: > 44.7 µM | TGI [32]: > 100 µM | TGI [33]: > 100 µM | TGI [34]: > 25.2 µM | TGI [35]: > 100 µM | TGI [36]: > 100 µM | TGI [37]: > 100 µM | TGI [38]: > 27.8 µM | TGI [39]: > 100 µM | TGI [40]: > 100 µM | TGI [41]: > 100 µM | TGI [42]: > 30.2 µM | TGI [43]: > 100 µM | TGI [44]: > 100 µM | TGI [45]: > 100 µM | TGI [46]: 6.48 µM | TGI [47]: > 100 µM | TGI [48]: > 100 µM | TGI [49]: > 71.3 µM | TGI [50]: > 100 µM | TGI [51]: > 100 µM | TGI [52]: 13.2 µM | TGI [53]: > 100 µM | TGI [54]: > 100 µM | TGI [55]: > 100 µM | TGI [56]: > 100 µM | TGI [57]: > 100 µM | TGI [58]: > 100 µM | TGI [59]: > 100 µM

COc1ccc(/C=c2/[nH]c(=O)/c(=C\c3ccc(OCc4ccccc4)cn3)[nH]c2=O)cc1
TGI [1]: > 100 µM | TGI [2]: > 100 µM | TGI [3]: > 100 µM | TGI [4]: > 100 µM | TGI [5]: > 100 µM | TGI [6]: > 100 µM | TGI [7]: > 100 µM | TGI [8]: > 100 µM | TGI [10]: > 100 µM | TGI [11]: > 100 µM | TGI [12]: > 100 µM | TGI [13]: > 100 µM | TGI [14]: > 100 µM | TGI [15]: > 100 µM | TGI [16]: > 100 µM | TGI [17]: > 100 µM | TGI [18]: > 100 µM | TGI [19]: > 100 µM | TGI [20]: > 100 µM | TGI [21]: > 100 µM | TGI [22]: 83.5 µM | TGI [23]: > 100 µM | TGI [24]: > 100 µM | TGI [25]: > 100 µM | TGI [26]: > 100 µM | TGI [27]: > 100 µM | TGI [28]: > 100 µM | TGI [29]: > 100 µM | TGI [30]: > 100 µM | TGI [31]: > 100 µM | TGI [32]: > 100 µM | TGI [33]: > 100 µM | TGI [34]: > 100 µM | TGI [35]: > 100 µM | TGI [36]: > 100 µM | TGI [37]: > 100 µM | TGI [38]: > 100 µM | TGI [39]: > 100 µM | TGI [40]: 61 µM | TGI [41]: > 100 µM | TGI [42]: > 100 µM | TGI [43]: > 100 µM | TGI [45]: > 100 µM | TGI [46]: > 100 µM | TGI [47]: > 100 µM | TGI [48]: > 100 µM | TGI [49]: > 100 µM | TGI [50]: > 100 µM | TGI [51]: > 100 µM | TGI [52]: > 100 µM | TGI [53]: 80 µM | TGI [54]: > 100 µM | TGI [55]: > 100 µM | TGI [56]: > 100 µM | TGI [57]: > 100 µM | TGI [58]: > 100 µM | TGI [59]: > 100 µM
